According to publication PMC3118801, “Tyrosine Kinase Syk Non-Enzymatic Inhibitors and Potential Anti-Allergic Drug-Like Compounds Discovered by Virtual and In Vitro Screening” (PLoS ONE, 2011):
In brackets after ≈: the same amount, converted by molar mass. Like-named read-outs stand apart in the source and are kept apart here.

Experiments:
[1] = system: RBL-2H3 mast cells; assay: FcεRI-induced β-hexosaminidase release (mast cell degranulation); assay type: cell-based, rat
Experimental: The 85 compounds were then tested in a cellular functional assay in order to evaluate their ability to inhibit the liberation of allergic mediators from mast cells. The test is based on the measure of the liberation by exocytosis of the enzyme β-hexosaminidase following the stimulation of the FcεRI, the high affinity receptor for IgE at the surface of mast cells. To this aim, RBL-2H3 mast cells were incubated with each compound for one hour at a final concentration of 20 µM, and β-hexosaminidase release following FcεRI stimulation was measured.
The mouse IgE anti-DNP monoclonal antibody 2682-I was used as hybridoma culture supernatants which contained 1 µg ml^−1 IgE. RBL-2H3 rat basophilic leukaemia cells (ATCC) were maintained as monolayer cultures in RPMI 1640 medium supplemented with 10% fetal bovine serum (Gibco). Measurements of β-hexosaminidase release in RBL-2H3 cells were performed as described, except that after 12–16 h incubation with anti-DNP IgE (0.5 µg ml^−1), cells were incubated for 90 min at 37°C in RPMI medium supplemented with the indicated concentrations of small molecules or DMSO (0.25%). Cells were challenged for 45 min with DNP-BSA (50 ng ml^−1).

[2] = target: T1, Syk (Homo sapiens, UniProt P43405); set-up: method as in PMID 18539317; conditions: cited from earlier work
[3] = target: T2, Syk (GST:Syk 6-242 fusion protein) (Homo sapiens, UniProt P43405); assay: ELISA-based Antibody Displacement Assay (binding of scFv G4G11 to Syk); conditions: 10 µM small molecule, 100 nM G4G11
T2 construct: Recombinant GST:Syk 6-242 fusion protein [34] was immobilized on an ELISA plate; made in house
Experimental: To determine the ability of the compounds to affect the binding of scFv G4G11 to Syk in vitro, we tested them individually in an ELISA-based Antibody Displacement Assay (see Materials and Methods). For this purpose, all 1000 compounds were reconstituted in DMSO, and they were tested at a final concentration of 10 µM in PBS. Compound C-13 was reconstituted in DMF and was used in parallel as a control. The capacity of each compound to inhibit the binding of G4G11 to Syk was evaluated in comparison to the binding of G4G11 to Syk in PBS (final concentration of 100 nM) containing the appropriate concentrations of DMSO or DMF.
Recombinant GST:Syk 6-242 fusion protein [34] was immobilized on an ELISA plate at final concentration of 10 µg ml^−1. For the screening assay, small molecules diluted in PBS at final concentration of 10 µM were added to the wells for one hour at RT, before adding myc-tagged scFv G4G11 at final concentration of 100 nM for one additional hour. The binding of G4G11 to Syk was evaluated by adding HRP-conjugated mAb 9E10 which detects the amino acid sequence EQKLISEEDLN of human c-myc protein located at the C-terminal end of the scFv.

[4] = system: anaphylactic shock; set-up: method as in PMID 18539317; conditions: administered orally to mice; cited from earlier work
[5] = system: RBL-2H3 mast cells; set-up: method as in PMID 18539317; conditions: cited from earlier work
[6] = target: T1, Syk; assay: Direct binding to Syk by fluorescence spectroscopy
Experimental: Direct binding to Syk of a selection of these 85 compounds was investigated using fluorescence spectroscopy.
For each compound, the ChemBridge ID and the cluster to which it belongs are reported. Direct binding to Syk of some compounds was measured using fluorescence spectroscopy (Kd: dissociation constant). Antibody inhibition percentage reflects the capacity of each compound to inhibit the binding of scFv G4G11 to Syk (final concentrations of 10 µM for small molecules and 100 nM for G4G11). The ability of each compound to inhibit the liberation of allergic mediators from mast cells is measured (**: IC50 values of cell degranulation ≥20 µM). Some physicochemical properties computed with FAFDrugs2, as well as the possible ADMET problems detected by our tool are reported. The computations involved: molecular weight (MW), logP, topological polar surface area (tPSA), H-bond acceptors and donors (HBA, HBD). (PDF) Click here for additional data file.

[7] = Solubility measurement in PBS by HPLC; assay type: physicochemical; conditions: aqueous buffer, kinetic from dmso stock, from 10 mM DMSO stock, 25°C
Experimental: 4 µl of a 10 mM DMSO stock solution from of each sample were dissolved in 400 µl of PBS and sonicated for 5 minutes. The samples were centrifuged for 15 minutes at 4000 rpm at 25°C, then 250 µl of each sample were transferred to a 96 well plate. 10 µl of each sample were analyzed by HPLC and the sample concentrations were calculated against a series of caffeine standards ranging from 1 to 100 µM.

[8] = system: RBL-2H3 mast cells; assay: Ionomycin-induced degranulation as control of the degranulation machinery (toxic effects); assay type: cell-based, rat; conditions: ionomycin treatment, concentrations up to 10 µM
Experimental: To address the possible toxic effects of these compounds on degranulation, we performed a dose-dependent experiment in which FcεRI-dependent degranulation of mast cells was performed in parallel with ionomycin-induced degranulation as a control of the degranulation machinery. […] The ADMET profile of our 10 bioactive compounds was analyzed further. […] In addition, the solubility was measured experimentally and the Lipinski “rule of five” descriptors were computed to probe further the molecules from cluster 2 (Table 1).
Figure 5 Compounds 7501888 and 7722851 impair FcεRI-induced mast cell degranulation. β-hexosaminidase release from mast cells was evaluated in comparison to ionomycin-induced degranulation as a control of the machinery.

[9] = Rattus norvegicus, Table 1, RBL-2H3, FcεRI stimulation, β-hexosaminidase release, read-out: IC50 Cell Degranulation
[10] = Table S1, class symbol, read-out: IC50 Cell Degranulation
[11] = Rattus norvegicus, RBL-2H3, Table S1, class symbol, read-out: IC50 Cell Degranulation

Row | Antibody Inhibition [3] [%] | IC50 [1, 10] [µM] | Compound | other results
1 | 67.5 | – | COc1ccccc1C(=O)Nc1ccc(-c2nnc(SCC(=O)c3ccccc3)n2C)cc1 [compound 6282824] | IC50 [1, 9]: 5 µM; solubility at 5 min [7]: 4.5 µM (≈ 2.06 µg/mL); Kd ([6]; Table 1): 5.6 µM
2 | 70.5 | ≥ 20 | COc1ccc(OC)c(C2C(=C(O)c3ccc(C)cc3)C(=O)C(=O)N2Cc2cccnc2)c1 (stereo not shown) [compound 6652639] | –
3 | 50 | ≥ 20 | COc1ccc(C2C(=C(O)c3ccc(F)cc3)C(=O)C(=O)N2CCN2CCOCC2)cc1OC (stereo not shown) [compound 6654239] | –
4 | 50 | ≥ 20 | COc1ccc(C2C(=C(O)c3ccc(F)cc3)C(=O)C(=O)N2CCN2CCOCC2)c(OC)c1 (stereo not shown) [compound 6670673] | –
5 | 50 | ≥ 20 | COc1ccc(C2C(=C(O)c3ccc(C)cc3)C(=O)C(=O)N2CCN2CCOCC2)cc1 (stereo not shown) [compound 6670747] | –
6 | 50 | – | COc1ccc(C2C(C(=O)c3cccs3)=C(O)C(=O)N2CCN2CCOCC2)cc1OC (stereo not shown) [compound 6677533] | IC50 [1, 11]: ≥ 20 µM
7 | 58 | ≥ 20 | COc1cc(NS(=O)(=O)c2ccc(NC(C)=O)cc2)c(OC)cc1NC(=O)c1ccccc1 [compound 6853966] | –
8 | 79.5 | ≥ 20 | COc1cccc(C2C(=C(O)c3ccc(C)cc3)C(=O)C(=O)N2CCCN2CCOCC2)c1 (stereo not shown) [compound 6882059] | Kd ([6]; Table S1): 9.4 µM
9 | 27.5 | ≥ 20 | COc1cccc(C2C(=C(O)c3ccccc3)C(=O)C(=O)N2CCCN2CCOCC2)c1OC (stereo not shown) [compound 6891745] | –
10 | 43 | – | CCOC(=O)c1ccc(NC(=O)CSc2nnc(-c3ccco3)c(-c3ccco3)n2)cc1 [compound 7495334] | IC50 [1, 9]: 10 µM; solubility at 5 min [7]: 35.2 µM (≈ 15.9 µg/mL); Kd ([6]; Table 1): 1.6 µM
11 | 40 | – | COc1cc(-c2nnc(SCC(=O)Nc3ccc(Cl)cc3)n2CCc2ccccc2)cc(OC)c1OC [compound 7501888] | toxic effect on mast cells responses [8]: no major toxic effect; IC50 [1, 9]: 4 µM; solubility at 5 min [7]: 6 µM (≈ 3.23 µg/mL); Kd ([6]; Table 1): 8.2 µM
12 | 19 | – | CCOc1ccc(NC(=O)CC2C(=O)N(c3ccc(OC)cc3)C(=S)N2CCN2CCOCC2)cc1 (stereo not shown) [compound 7722914] | IC50 ([1]; Rattus norvegicus, RBL-2H3, Table S1, numeric values, read-out: IC50 Cell Degranulation): 15 µM; Kd ([6]; Table S1): 15.6 µM
13 | 20 | – | COC(=O)c1ccc(NC(=O)CN(c2cccc(OC)c2)S(=O)(=O)c2ccccc2)cc1 [compound 7787455] | IC50 [1, 11]: ≥ 20 µM

Further lines, the compound ahead of its results:

Row | Compound | Antibody Inhibition [3] [%] | IC50 [1, 10] [µM] | other results
14 | COC(=O)c1ccccc1-c1ccc(C=C2SC(=S)N(Cc3ccccc3)C2=O)o1 [C-13, methyl 2-{5-[(3-benzyl-4-oxo-2-thioxo-1,3-thiazolidin-5-ylidene)methyl]-2-furyl}benzoate, reference compound] | 81 | – | IC50 [1, 9]: 2 µM; effects on the enzymatic activity of Syk [2]: no effects; anaphylactic shock in vivo [4]: inhibits; FcεRI-induced mast cell degranulation in vitro [5]: inhibits; Kd ([6]; Table 1): 4 µM
15 | COc1ccc(S(=O)(=O)N(CCc2ccccc2)CC(=O)Nc2ccc(C(N)=O)cc2)cc1 [compound 6498669] | 63 | ≥ 20 | Kd ([6]; Table S1): 0.8 µM
16 | N#CC1=C(N)Oc2[nH]nc(-c3ccccc3)c2C1c1cccc(OC(=O)c2ccco2)c1 (stereo not shown) [compound 6669449] | 42 | – | IC50 [1, 11]: ≥ 20 µM
17 | Cc1ccc(-n2c3c(cc(C(=O)NC4CC(C)(C)NC(C)(C)C4)c2=O)C(=O)CC(C)(C)C3)cc1 [compound 6866968] | 57.5 | ≥ 20 | –
18 | O=C(Nc1ccccc1C(=O)N1CCCC1)c1ccc(CN2CCc3ccccc3C2)cc1 [compound 7199725] | 25 | ≥ 20 | –
19 | Cc1ccc(-c2nnc(Nc3cccc(O)c3)c3ccccc23)cc1S(=O)(=O)NC(C)(C)CO [compound 7238569] | 32 | ≥ 20 | –
20 | CCOC(=O)c1ccc(NC(=O)CC2C(=O)N(c3ccc(Cl)cc3)C(=S)N2Cc2cccnc2)cc1 (stereo not shown) [compound 7722851] | 39.5 | – | toxic effect on mast cells responses [8]: no major toxic effect; IC50 ([1]; Rattus norvegicus, RBL-2H3, FcεRI-dependent degranulation of mast cells, read-out: IC50 (degranulation)): 4 µM; Kd ([6]; Table S1): 21.8 µM
21 | C=CCn1c(SCC(=O)Nc2cccc(OC)c2)nnc1C(C)NC(=O)c1ccccc1 (stereo not shown) [compound 7752193] | 35 | – | IC50 [1, 9]: 10 µM; solubility at 5 min [7]: 0.3 µM (≈ 0.135 µg/mL); Kd ([6]; Table 1): 8 µM
22 | C=CCn1c(CNC(=O)c2cccc(C)c2)nnc1SCC(=O)Nc1cccc(C(=O)OC(C)C)c1 [compound 7783660] | 27 | – | IC50 [1, 9]: 10 µM; solubility at 5 min [7]: 12.9 µM (≈ 6.55 µg/mL); Kd ([6]; Table 1): 4.8 µM
